Data from PubChem BioAssay AID1963448 (Molecular Pharmacology Branch, DTP, NCI, 2024).
Values joined by “and” are separate entries in the source; they are usually repeats but may differ in a detail not shown here. Identical values can stand only once.

Test system: 616215-338-R-J1-PDC complex spheroid growth, % test/control
Assay: Anticancer human tumor 616215-338-R-J1-PDC patient-derived colon adenocarcinoma cell line growth inhibition [Asc]
Details: for IC50: curve of first compound; for viability, T/C: stronger effect = lower value
In short: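 Spheroid model: tumor line + HUVEC + hMSC. Single agents and combinations; top conc. at/near clinical Cmax (10 microM if undetermined), half-log dilutions. DMSO stocks at 800-fold test concentration.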
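Note: spheroids exposed to agents for seven days before readout.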
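Throughout, for viability, T/C: 100% = DMSO vehicle control viability.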

## C=C(F)C(=O)N1CCN(c2nc(OCC3CCCN3C)nc3c2CCN(c2cccc4cccc(Cl)c24)C3)CC1CC#N (configuration not stated) + CNC(C)C(=O)NC1CN(S(=O)(=O)c2cccc(S(=O)(=O)N3CCC4CCC(C(=O)NC(c5ccccc5)c5ccccc5)N4C(=O)C(NC(=O)C(C)NC)C3)c2)CCC2CCC(C(=O)NC(c3ccccc3)c3ccccc3)N2C1=O
Second compound 0.00316 µM
  IC50: 175 nM
Second compound 0.01 µM
  IC50: 162 nM
Second compound 0.0316 µM
  IC50: 155 nM
Second compound 0.1 µM
  IC50: 52.6 nM
Second compound 0.316 µM
  IC50: 243 nM
Second compound 1 µM
  IC50: 131 nM
Second compound 0.00316 µM, first compound 0.0316 µM
  viability, T/C: 61%
Second compound 0.00316 µM, first compound 0.1 µM
  viability, T/C: 53.5%
Second compound 0.00316 µM, first compound 0.316 µM
  viability, T/C: 43.7%
Second compound 0.00316 µM, first compound 1 µM
  viability, T/C: 23.7%
Second compound 0.00316 µM, first compound 3.16 µM
  viability, T/C: 1.09%
Second compound 0.00316 µM, first compound 10 µM
  viability, T/C: 0.18%
Second compound 0.01 µM, first compound 0.0316 µM
  viability, T/C: 64.8%
Second compound 0.01 µM, first compound 0.1 µM
  viability, T/C: 53.1%
Second compound 0.01 µM, first compound 0.316 µM
  viability, T/C: 41.4%
Second compound 0.01 µM, first compound 1 µM
  viability, T/C: 26.3%
Second compound 0.01 µM, first compound 3.16 µM
  viability, T/C: 0.82%
Second compound 0.01 µM, first compound 10 µM
  viability, T/C: 2.38%
Second compound 0.0316 µM, first compound 0.0316 µM
  viability, T/C: 65.3%
Second compound 0.0316 µM, first compound 0.1 µM
  viability, T/C: 43.8%
Second compound 0.0316 µM, first compound 0.316 µM
  viability, T/C: 47.5%
Second compound 0.0316 µM, first compound 1 µM
  viability, T/C: 21.2%
Second compound 0.0316 µM, first compound 3.16 µM
  viability, T/C: 0.88%
Second compound 0.0316 µM, first compound 10 µM
  viability, T/C: 0.16%
Second compound 0.1 µM, first compound 0.0316 µM
  viability, T/C: 54.9%
Second compound 0.1 µM, first compound 0.1 µM
  viability, T/C: 43.8%
Second compound 0.1 µM, first compound 0.316 µM
  viability, T/C: 39.4%
Second compound 0.1 µM, first compound 1 µM
  viability, T/C: 23.5%
Second compound 0.1 µM, first compound 3.16 µM
  viability, T/C: 0.85%
Second compound 0.1 µM, first compound 10 µM
  viability, T/C: 1.36%
Second compound 0.316 µM, first compound 0.0316 µM
  viability, T/C: 56.5%
Second compound 0.316 µM, first compound 0.1 µM
  viability, T/C: 58.4%
Second compound 0.316 µM, first compound 0.316 µM
  viability, T/C: 47.7%
Second compound 0.316 µM, first compound 1 µM
  viability, T/C: 13.9%
Second compound 0.316 µM, first compound 3.16 µM
  viability, T/C: 1.16%
Second compound 0.316 µM, first compound 10 µM
  viability, T/C: 0.18%
Second compound 1 µM, first compound 0.0316 µM
  viability, T/C: 60%
Second compound 1 µM, first compound 0.1 µM
  viability, T/C: 52%
Second compound 1 µM, first compound 0.316 µM
  viability, T/C: 38.8%
Second compound 1 µM, first compound 1 µM
  viability, T/C: 15.7%
Second compound 1 µM, first compound 3.16 µM
  viability, T/C: 1.42%
Second compound 1 µM, first compound 10 µM
  viability, T/C: 0.21%

## C=C(F)C(=O)N1CCN(c2nc(OCC3CCCN3C)nc3c2CCN(c2cccc4cccc(Cl)c24)C3)CC1CC#N (configuration not stated)
Compound 0.0316 µM
  viability, T/C: 75.3% and 90.8% and 99.4%
Compound 0.1 µM
  viability, T/C: 72.6% and 95.6% and 102%
Compound 0.316 µM
  viability, T/C: 59.3% and 97.8% and 100%
Compound 1 µM
  viability, T/C: 38.8% and 98.2% and 107%
Compound 10 µM
  viability, T/C: 0.82% and 0.6% and 0.47%

## Cc1nc(N2CCC3(CC2)COC(C)C3N)c(CO)nc1Sc1ccnc(N)c1Cl (configuration not stated) + CCN1C(C(=O)NC23CCC(C(=O)O)(CC2)CC3)C(c2cccc(Cl)c2F)C2(C(=O)Nc3cc(Cl)ccc32)C12CCCCC2
Second compound 0.03 µM
  IC50: > 3000 nM
Second compound 0.0949 µM
  IC50: > 3000 nM
Second compound 0.3 µM
  IC50: 303 nM
Second compound 0.949 µM
  IC50: 338 nM
Second compound 3 µM
  IC50: 40.3 nM
Second compound 0.03 µM, first compound 0.00949 µM
  viability, T/C: 99.4%
Second compound 0.03 µM, first compound 0.03 µM
  viability, T/C: 102%
Second compound 0.03 µM, first compound 0.0949 µM
  viability, T/C: 98.4%
Second compound 0.03 µM, first compound 0.3 µM
  viability, T/C: 91.8%
Second compound 0.03 µM, first compound 0.949 µM
  viability, T/C: 86.3%
Second compound 0.03 µM, first compound 3 µM
  viability, T/C: 74.4%
Second compound 0.0949 µM, first compound 0.00949 µM
  viability, T/C: 101%
Second compound 0.0949 µM, first compound 0.03 µM
  viability, T/C: 89.2%
Second compound 0.0949 µM, first compound 0.0949 µM
  viability, T/C: 84.1%
Second compound 0.0949 µM, first compound 0.3 µM
  viability, T/C: 87.2%
Second compound 0.0949 µM, first compound 0.949 µM
  viability, T/C: 80.5%
Second compound 0.0949 µM, first compound 3 µM
  viability, T/C: 64.7%
Second compound 0.3 µM, first compound 0.00949 µM
  viability, T/C: 69.8%
Second compound 0.3 µM, first compound 0.03 µM
  viability, T/C: 65.6%
Second compound 0.3 µM, first compound 0.0949 µM
  viability, T/C: 65.1%
Second compound 0.3 µM, first compound 0.3 µM
  viability, T/C: 49.4%
Second compound 0.3 µM, first compound 0.949 µM
  viability, T/C: 39.2%
Second compound 0.3 µM, first compound 3 µM
  viability, T/C: 35%
Second compound 0.949 µM, first compound 0.00949 µM
  viability, T/C: 65.9%
Second compound 0.949 µM, first compound 0.03 µM
  viability, T/C: 65%
Second compound 0.949 µM, first compound 0.0949 µM
  viability, T/C: 66.6%
Second compound 0.949 µM, first compound 0.3 µM
  viability, T/C: 48.3%
Second compound 0.949 µM, first compound 0.949 µM
  viability, T/C: 37.7%
Second compound 0.949 µM, first compound 3 µM
  viability, T/C: 24.8%
Second compound 3 µM, first compound 0.00949 µM
  viability, T/C: 53.3%
Second compound 3 µM, first compound 0.03 µM
  viability, T/C: 49.2%
Second compound 3 µM, first compound 0.0949 µM
  viability, T/C: 47.8%
Second compound 3 µM, first compound 0.3 µM
  viability, T/C: 38.8%
Second compound 3 µM, first compound 0.949 µM
  viability, T/C: 23.9%
Second compound 3 µM, first compound 3 µM
  viability, T/C: 11.6%
